Data on one compound can be found in US5962533A, “Hydroxy polyamines” (priority 1996, dated 1999).

The subject of the test is NMDA receptor. Briefly: NMDA assay: specific [3H]MK-801 binding to washed rat cerebral cortical membranes. Conditions: 100 μm L-glutamate, 100 μm glycine, 2 nm [3H]MK-801. The source says:
FIG. 4 depicts the effects of (HO)2 DEHSPM and DEHSPM on the NMDA receptor (MK-801 binding). Each data point represents the mean ±s.d. of three experiments. Each experiment was, in turn, performed in triplicate. "100% activity" is defined as the amount of specific MK-801 binding to washed rat cerebral cortical membranes in the presence of saturating concentrations of coagonists (100 μm L-glutamate, 100 μm glycine) and 2 nm [^3 H]MK-801.
NMDA Assay. The procedure for measuring specific binding of [^3 H]MK-801 to the N-methyl-D-aspartate receptor complex was a modification of the method of Ransom and Stec [J. Neurochem., Vol. 51, pages 830-836 (1988)]. Cerebral cortices from young male Sprague-Dawley rats (200-300 g) were homogenized with 10 volumes ice-cold 0.32M sucrose using a motor-driven glass/Teflon homogenizer. The homogenate was centrifuged at 1,000 g for 10 minutes and the pellet was discarded. The supernatant was then centrifuged at 18,000 g for 20 minutes. The 18,000 g pellet was then resuspended in 10 volumes buffer A (5 mm Tris-HCl, pH 7.7) at 4° C., homogenized using high-intensity ultrasound and centrifuged at 8,000 for 20 minutes. The supernatant and upper buffy coat of the pellet were combined and centrifuged at 50,000 g for 20 minutes. The pellet was then resuspended in 10 volumes buffer A and homogenized using high-intensity ultrasound. These resuspended membranes were then centrifuged at 50,000 g, discarding the supernatant. The membranes were washed in this manner an additional three times and stored as a frozen suspension at -80° C. for at least 18 hours, but no longer than 2 weeks before use.
For binding experiments, frozen membranes were thawed, pelleted at 50,000 g for 20 minutes and washed as described above, except that 20 volumes of buffer A were used for resuspension, for a total of four times. The final pellet was resuspended in buffer B (5 mm Tris-HCl, pH 7.5) at 23° C. The binding assay mixture was 1.00 ml buffer B containing 200-300 μg membrane protein, 100 μm L-glutamate, 100 μm glycine, 2 nm [^3 H]MK-801 and tetraamine at the following concentrations: 0 ("100%+L-glu,+gly-Control") and 0.05, 0.1, 0.5, 1, 5, 10, 50, 100, 500 and 1,000 μm. Non-specific binding was determined using 100 μm MK-801.
Binding assays were performed in triplicate at 23° C. for one hour and were terminated by filtration through Whatman GF/B glass fiber filters followed by three 4.0 ml rinses of ice-cold buffer B using a Brandel M-48 Cell Harvester.

Counter-ions that a name gives are not always drawn.

Turning to `CCNCC[C@@H](O)CNCCCCNC[C@H](O)CCNCC` [(HO)2 DEHSPM, N^1,N^14 -Diethyl-3(R),12(R)-dihydroxyhomospermine tetrahydrochloride], the “concentration showing agonist activity on MK-801 binding” value is recorded as 0.5-1.0 μm, the “concentrations of maximal antagonism of MK-801 binding” value is no less than 50 μm and the “concentrations showing marked antagonist activity on MK-801 binding” value was “above 5 μm”.
